For 18 compounds, IC50 results are on record in patent US20260356840A1, “[1,2,4]TRIAZOLO[1,5-A]PYRIMIDINONE WRN INHIBITORS” (Nimbus Wadjet, Inc., priority 2023, published 2026).

In general, IC50 refers to the concentration that gives 50% inhibition. Read a high IC50 as weaker potency in that assay.

T1 sequence (Q14191 517-1235 L1074F): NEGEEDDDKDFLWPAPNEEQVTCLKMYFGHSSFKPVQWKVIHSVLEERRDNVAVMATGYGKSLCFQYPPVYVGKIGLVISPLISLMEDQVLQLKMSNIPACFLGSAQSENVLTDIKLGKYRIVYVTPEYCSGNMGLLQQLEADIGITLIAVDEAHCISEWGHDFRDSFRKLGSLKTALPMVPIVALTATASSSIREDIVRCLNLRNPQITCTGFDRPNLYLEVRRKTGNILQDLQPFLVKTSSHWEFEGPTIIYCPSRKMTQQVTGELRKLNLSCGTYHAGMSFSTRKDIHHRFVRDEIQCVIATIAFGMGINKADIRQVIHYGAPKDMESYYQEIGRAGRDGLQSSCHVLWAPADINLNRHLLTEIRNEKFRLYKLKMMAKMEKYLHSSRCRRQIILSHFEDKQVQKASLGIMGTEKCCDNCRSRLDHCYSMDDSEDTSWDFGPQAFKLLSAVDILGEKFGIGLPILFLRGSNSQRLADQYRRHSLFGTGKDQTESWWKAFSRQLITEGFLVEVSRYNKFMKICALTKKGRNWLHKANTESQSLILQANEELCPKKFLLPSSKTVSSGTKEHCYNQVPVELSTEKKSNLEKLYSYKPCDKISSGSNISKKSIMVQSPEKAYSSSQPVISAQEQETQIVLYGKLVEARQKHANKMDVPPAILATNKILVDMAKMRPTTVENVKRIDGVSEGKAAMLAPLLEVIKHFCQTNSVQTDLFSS

The test has as its target T1, human Werner helicase (Uniprot Q14191, amino acids 517-1235 with L1074F point mutation), WRN-BV08 (Homo sapiens, UniProt Q14191, L1074F).
T1 construct: Uniprot Q14191, amino acids 517-1235 with L1074F point mutation; TEV cleavable 8xHis tag (C, cleaved yes); made in house; host or cells: Sf9 insect cells (baculovirus, pFastBac)
Kind of test: WRN (BV08) ADP-Glo Assay. The class given is biochemical. The procedure:
DNA duplex was synthesized at BGI (Shenzhen, China) and was composed of strand 1 with the sequence 5′-[…]-3′ (SEQ ID NO.: 1) and strand 2 with the sequence 5′-[…]-3′ (SEQ ID NO.: 2). DNA strands were annealed by heating to 95 °C for 5 minutes followed by slow cooling to room temperature. […] DMSO (0.1 μl) was added to columns 12, rows A-H and column 24, rows I-P for the maximum signal control.
Where RLU=relative luminescence units, sample=signal in sample well, and MIN and MAX are the respective minimum and maximum signal controls. • Four-parameter IC50 fit equation:
Y=Bottom+(Top−Bottom)/(1+(IC50/X)^Hill Slope)
Where top and bottom are normally allowed to float but may be fixed at 100 or 0 respectively in a 3-parameter fit. Y is the % inhibition and X is the compound concentration.
Molecular Biology and virus production. […] The baculovirus from the expression plasmid WRN-BV08 was generated from transfection and amplification following the manufacturer's instructions.
Sf9 cells grown in SF900II media were infected with 1:200 WRN-BV08 P2 virus and incubated for protein expression for 72 h at 27 °C. The WRN protein was purified using the following protocol. The cell pellets were thawed and resuspended in buffer A (50 mM Tris, pH 7.5, 500 mM NaCl, 1 mM TCEP, 10% Glycerol) supplemented with 0.5% CHAPS, 1 mM [COMPOUND LEFT OUT], 1 μg/ml Leupeptin, 1 μg/ml Pepstatin, and the Pierce Universal Nuclease and cocktail tablet. Cleared lysates were loaded onto a Ni Sepharose™ excel column and washed with buffer A and bound protein was eluted with buffer A supplemented with 300 mM imidazole. The eluted protein was dialyzed against buffer A and digested by His-tagged TEV (1:5 ratio) overnight at 4 °C. […] Untagged WRN protein was eluted from the column with buffer A supplemented with 20 mM imidazole, dialyzed overnight into buffer B (50 mM Tris, pH 7.5, 1 mM TCEP, 10% Glycerol) supplemented with 150 mM NaCl and loaded onto a Heparin column. Proteins were eluted with a step gradient of buffer B supplemented with 150 mM, 200 mM, 300 mM and 500 mM NaCl.
(In general: ADP-Glo turns the ADP formed in a reaction into a luminescent signal.)
As for `CCc1c(N2CCN(C(=O)c3cnn(C(F)F)c3)CC2)c(=O)n2nc(-c3ccnc(OC)c3)nc2n1CC(=O)Nc1ccc(C(F)(F)F)cc1Cl` [Compound I-61, N-[2-chloro-4-(trifluoromethyl)phenyl]-2-(6-{4-[1-(difluoromethyl)-1H-pyrazole-4-carbonyl]piperazin-1-yl}-5-ethyl-2-(2-methoxypyridin-4-yl)-7-oxo-4H,7H-[1,2,4]triazolo[1,5-a]pyrimidin-4-yl)acetamide], the half-inhibitory concentration (IC50) lay in the range of 5 to 50 nM.

Regarding `CCc1c(N2CCN(C(=O)c3ncc4c(c3O)OCC4)CC2)c(=O)n2nc(C3=CCOCC3)nc2n1CC(=O)Nc1ccc(C(F)(F)F)cc1Cl` [Compound I-83, N-[2-chloro-4-(trifluoromethyl)phenyl]-2-[2-(3,6-dihydro-2H-pyran-4-yl)-5-ethyl-6-(4-{7-hydroxy-2H,3H-furo[3,2-c]pyridine-6-carbonyl}piperazin-1-yl)-7-oxo-4H,7H-[1,2,4]triazolo[1,5-a]pyrimidin-4-yl]acetamide], the IC50 was 5 to 50 nM.

In turn, `CCc1c(N2CCN(C(=O)c3ncc4c(c3O)CCO4)CC2)c(=O)n2nc(-c3ccnc(OC)c3)nc2n1CC(=O)Nc1ccc(C(F)(F)F)cc1Cl` [Compound I-85, N-[2-chloro-4-(trifluoromethyl)phenyl]-2-[5-ethyl-6-(4-{4-hydroxy-2H,3H-furo[2,3-c]pyridine-5-carbonyl}piperazin-1-yl)-2-(2-methoxypyridin-4-yl)-7-oxo-4H,7H-[1,2,4]triazolo[1,5-a]pyrimidin-4-yl]acetamide] had an IC50 of less than 5 nM.

Compound `CCc1c(N2CCN(C(=O)c3cnc(C)s3)CC2)c(=O)n2nc(-c3ccnc(OC)c3)nc2n1CC(=O)Nc1ccc(C(F)(F)F)cc1Cl` [Compound I-59, N-[2-chloro-4-(trifluoromethyl)phenyl]-2-[5-ethyl-2-(2-methoxypyridin-4-yl)-6-[4-(2-methyl-1,3-thiazole-5-carbonyl)piperazin-1-yl]-7-oxo-4H,7H-[1,2,4]triazolo[1,5-a]pyrimidin-4-yl]acetamide] registered an IC50 of 5 to 50 nM.

`CCc1c(N2CCN(C(C)=O)CC2)c(=O)n2nc(-c3cnn(CC(C)(C)O)c3)nc2n1CC(=O)Nc1ccc(C(F)(F)F)cc1Cl` [Compound I-55, 2-[6-(4-acetylpiperazin-1-yl)-5-ethyl-2-[1-(2-hydroxy-2-methylpropyl)-1H-pyrazol-4-yl]-7-oxo-4H,7H-[1,2,4]triazolo[1,5-a]pyrimidin-4-yl]-N-[2-chloro-4-(trifluoromethyl)phenyl]acetamide] had an IC50 of 5 to 50 nM.

In the case of `CCc1c(N2CCN(C(=O)c3cnnn3C)CC2)c(=O)n2nc(-c3ccnc(OC)c3)nc2n1CC(=O)Nc1ccc(C(F)(F)F)cc1Cl` [Compound I-63, N-[2-chloro-4-(trifluoromethyl)phenyl]-2-[5-ethyl-2-(2-methoxypyridin-4-yl)-6-[4-(1-methyl-1H-1,2,3-triazole-5-carbonyl)piperazin-1-yl]-7-oxo-4H,7H-[1,2,4]triazolo[1,5-a]pyrimidin-4-yl]acetamide], the 50% inhibitory concentration (IC50) fell in the range of 5 to 50 nM.

For `CCc1c(N2CCN(C(=O)c3cccc(C)c3O)CC2)c(=O)n2nc(C3=CCOCC3)nc2n1CC(=O)Nc1ccc(C(F)(F)F)cc1Cl` [Compound I-3, N-[2-chloro-4-(trifluoromethyl)phenyl]-2-[2-(3,6-dihydro-2H-pyran-4-yl)-5-ethyl-6-[4-(2-hydroxy-3-methylbenzoyl)piperazin-1-yl]-7-oxo-4H,7H-[1,2,4]triazolo[1,5-a]pyrimidin-4-yl]acetamide], the IC50 was in the range of 5 to 50 nM.

In turn, `CCc1c(N2CCN(C(=O)c3nocc3O)CC2)c(=O)n2nc(C3=CCOCC3)nc2n1CC(=O)Nc1ccc(C(F)(F)F)cc1Cl` [Compound I-29, N-[2-chloro-4-(trifluoromethyl)phenyl]-2-[2-(3,6-dihydro-2H-pyran-4-yl)-5-ethyl-6-[4-(4-hydroxy-1,2-oxazole-3-carbonyl)piperazin-1-yl]-7-oxo-4H,7H-[1,2,4]triazolo[1,5-a]pyrimidin-4-yl]acetamide] gave an IC50 of less than 5 nM.

On to `CCc1c(N2CCN(C(=O)c3cnn(C)c3C)CC2)c(=O)n2nc(-c3ccnc(OC)c3)nc2n1CC(=O)Nc1ccc(C(F)(F)F)cc1Cl` [Compound I-49, N-[2-chloro-4-(trifluoromethyl)phenyl]-2-{6-[4-(1,5-dimethyl-1H-pyrazole-4-carbonyl)piperazin-1-yl]-5-ethyl-2-(2-methoxypyridin-4-yl)-7-oxo-4H,7H-[1,2,4]triazolo[1,5-a]pyrimidin-4-yl}acetamide], for which the IC50 lay in the range of 5 to 50 nM.

Regarding `CCc1c(N2CCN(C(=O)c3cnn(C)c3)CC2)c(=O)n2nc(-c3nccc(OC)n3)nc2n1CC(=O)Nc1ccc(C(F)(F)F)cc1Cl` [Compound I-70, N-[2-chloro-4-(trifluoromethyl)phenyl]-2-[5-ethyl-2-(4-methoxypyrimidin-2-yl)-6-[4-(1-methyl-1H-pyrazole-4-carbonyl)piperazin-1-yl]-7-oxo-4H,7H-[1,2,4]triazolo[1,5-a]pyrimidin-4-yl]acetamide], the IC50 fell in the range of 100 to 500 nM.

Consider `CCc1c(N2CCN(C(=O)c3cc(C)ns3)CC2)c(=O)n2nc(-c3ccnc(OC)c3)nc2n1CC(=O)Nc1ccc(C(F)(F)F)cc1Cl` [Compound I-76, N-[2-chloro-4-(trifluoromethyl)phenyl]-2-[5-ethyl-2-(2-methoxypyridin-4-yl)-6-[4-(3-methyl-1,2-thiazole-5-carbonyl)piperazin-1-yl]-7-oxo-4H,7H-[1,2,4]triazolo[1,5-a]pyrimidin-4-yl]acetamide], for which the IC50 was 5 to 50 nM.

In turn, `CCc1c(N2CCN(C(=O)c3nocc3O)CC2)c(=O)n2nc(-c3ccnc(OC)c3)nc2n1CC(=O)Nc1ccc(C(F)(F)F)cc1Cl` [Compound I-88, N-[2-chloro-4-(trifluoromethyl)phenyl]-2-{5-ethyl-6-[4-(4-hydroxy-1,2-oxazole-3-carbonyl)piperazin-1-yl]-2-(2-methoxypyridin-4-yl)-7-oxo-4H,7H-[1,2,4]triazolo[1,5-a]pyrimidin-4-yl}acetamide] yielded an IC50 of 5 to 50 nM.

Consider `CCc1c(N2CCN(C(=O)CC#N)CC2)c(=O)n2nc(C3=CCOCC3)nc2n1CC(=O)Nc1ccc(C(F)(F)F)cc1Cl` [Compound I-25, N-[2-chloro-4-(trifluoromethyl)phenyl]-2-{6-[4-(2-cyanoacetyl)piperazin-1-yl]-2-(3,6-dihydro-2H-pyran-4-yl)-5-ethyl-7-oxo-4H,7H-[1,2,4]triazolo[1,5-a]pyrimidin-4-yl}acetamide], for which the IC50 lay in the range of 5 to 50 nM.

The compound `COc1cc(-c2nc3n(CC(=O)Nc4ccc(C(F)(F)F)cc4Cl)cc(C4CCN(C(=O)c5ncnc(C)c5O)CC4)c(=O)n3n2)ccn1` [Compound I-81, N-[2-chloro-4-(trifluoromethyl)phenyl]-2-{6-[1-(5-hydroxy-6-methylpyrimidine-4-carbonyl)piperidin-4-yl]-2-(2-methoxypyridin-4-yl)-7-oxo-4H,7H-[1,2,4]triazolo[1,5-a]pyrimidin-4-yl}acetamide] gave a 50% inhibitory concentration (IC50) of 100 to 500 nM.

`CCc1c(N2CCN(C(=O)C(C)(C)O)CC2)c(=O)n2nc(C3=CCOCC3)nc2n1CC(=O)Nc1ccc(C(F)(F)F)cc1Cl` [Compound I-18, N-[2-chloro-4-(trifluoromethyl)phenyl]-2-[2-(3,6-dihydro-2H-pyran-4-yl)-5-ethyl-6-[4-(2-hydroxy-2-methylpropanoyl)piperazin-1-yl]-7-oxo-4H,7H-[1,2,4]triazolo[1,5-a]pyrimidin-4-yl]acetamide] showed an IC50 of 50 to 100 nM.

`CCc1c(N2CCN(C(C)=O)CC2)c(=O)n2nc(C3=CCOCC3)nc2n1CC(=O)Nc1ccc(C(F)(F)F)cc1Cl` [Compound I-16, 2-[6-(4-acetylpiperazin-1-yl)-2-(3,6-dihydro-2H-pyran-4-yl)-5-ethyl-7-oxo-4H,7H-[1,2,4]triazolo[1,5-a]pyrimidin-4-yl]-N-[2-chloro-4-(trifluoromethyl)phenyl]acetamide] returned an IC50 of 5 to 50 nM.

For `CCc1c(N2CCN(C(=O)c3nnc(C)s3)CC2)c(=O)n2nc(C3=CCOCC3)nc2n1CC(=O)Nc1ccc(C(F)(F)F)cc1Cl` [Compound I-41, N-[2-chloro-4-(trifluoromethyl)phenyl]-2-[2-(3,6-dihydro-2H-pyran-4-yl)-5-ethyl-6-[4-(5-methyl-1,3,4-thiadiazole-2-carbonyl)piperazin-1-yl]-7-oxo-4H,7H-[1,2,4]triazolo[1,5-a]pyrimidin-4-yl]acetamide], the IC50 lay in the range of 5 to 50 nM.

As for `CCc1c(N2CCN(C(=O)CC(C)(C)O)CC2)c(=O)n2nc(C3=CCOCC3)nc2n1CC(=O)Nc1ccc(C(F)(F)F)cc1Cl` [Compound I-40, N-[2-chloro-4-(trifluoromethyl)phenyl]-2-[2-(3,6-dihydro-2H-pyran-4-yl)-5-ethyl-6-[4-(3-hydroxy-3-methylbutanoyl)piperazin-1-yl]-7-oxo-4H,7H-[1,2,4]triazolo[1,5-a]pyrimidin-4-yl]acetamide], the IC50 fell in the range of 50 to 100 nM.
